pIC50: −log10 of the molar value. Converted amounts (≈) assume the structure as drawn. The source made the active and inactive calls. The calls are words filed in the database; no cut-off is given here.
Tests used:
[1] = tested on: Colletotrichum orbiculare; assay: Antifungal activity against Colletotrichum orbiculare assessed as reduction in fungal cell growth incubated for 48 hrs by serial dilution method; format: functional
Fusarium oxysporum = assay: Antifungal activity against Fusarium oxysporum assessed as reduction in fungal cell growth incubated for 48 hrs by serial dilution method; format: functional
Penicillium citrinum = assay: Antifungal activity against Penicillium citrinum assessed as reduction in fungal cell growth incubated for 48 hrs by serial dilution method; format: functional
[2] = tested on: Fusarium oxysporum f. sp. vasinfectum; assay: Antifungal activity against Fusarium oxysporum sp. vasinfectum assessed as reduction in fungal cell growth incubated for 48 hrs by serial dilution method; format: functional
Ralstonia solanacearum = assay: Antibacterial activity against Ralstonia solanacearum assessed as reduction in bacterial cell growth incubated for 24 hrs by filter paper assay; format: functional
Pseudomonas aeruginosa = assay: Antibacterial activity against Pseudomonas aeruginosa assessed as reduction in bacterial cell growth incubated for 24 hrs by filter paper assay; format: functional
Curvularia lunata = assay: Antifungal activity against Curvularia lunata assessed as reduction in fungal cell growth incubated for 48 hrs by serial dilution method; format: functional
Escherichia coli = assay: Antibacterial activity against Escherichia coli assessed as reduction in bacterial cell growth incubated for 24 hrs by filter paper assay; format: functional
Candida tropicalis = assay: Antifungal activity against Candida tropicalis assessed as reduction in fungal cell growth incubated for 48 hrs by serial dilution method; format: functional
Acetylcholinesterase = Acetylcholinesterase (Electrophorus electricus, UniProt O42275); assay: Inhibition of electric eel AChE by Ellman's colorimetry
Sequence of Acetylcholinesterase (O42275 whole entry): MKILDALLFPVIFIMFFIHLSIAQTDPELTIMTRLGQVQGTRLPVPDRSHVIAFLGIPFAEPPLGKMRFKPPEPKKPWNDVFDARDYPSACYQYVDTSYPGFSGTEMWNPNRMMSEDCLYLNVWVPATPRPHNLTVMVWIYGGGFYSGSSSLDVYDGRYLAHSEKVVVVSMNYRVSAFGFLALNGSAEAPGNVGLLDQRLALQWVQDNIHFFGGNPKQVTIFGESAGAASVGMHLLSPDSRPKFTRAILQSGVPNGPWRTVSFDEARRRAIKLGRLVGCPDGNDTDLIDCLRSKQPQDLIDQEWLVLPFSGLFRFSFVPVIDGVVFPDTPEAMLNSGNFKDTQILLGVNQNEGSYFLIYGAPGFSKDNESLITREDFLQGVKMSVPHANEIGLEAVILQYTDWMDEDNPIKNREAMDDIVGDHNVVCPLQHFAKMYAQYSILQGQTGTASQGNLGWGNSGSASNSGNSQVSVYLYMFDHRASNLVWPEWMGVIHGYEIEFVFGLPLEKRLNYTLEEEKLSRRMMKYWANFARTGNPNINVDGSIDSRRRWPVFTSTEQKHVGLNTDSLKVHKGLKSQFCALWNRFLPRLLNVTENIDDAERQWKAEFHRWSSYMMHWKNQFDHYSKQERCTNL

Bacillus cereus = assay: Antibacterial activity against Bacillus cereus assessed as reduction in bacterial cell growth incubated for 24 hrs by filter paper assay; format: functional
Cryptococcus neoformans = assay: Antifungal activity against Cryptococcus neoformans assessed as reduction in fungal cell growth incubated for 48 hrs by serial dilution method; format: functional
Verticillium dahliae = assay: Antifungal activity against Verticillium dahliae assessed as reduction in fungal cell growth incubated for 48 hrs by serial dilution method; format: functional
Cytospora = assay: Antifungal activity against Cytospora juglandis assessed as reduction in fungal cell growth incubated for 48 hrs by serial dilution method; format: functional
Aspergillus flavus = assay: Antifungal activity against Aspergillus flavus assessed as reduction in fungal cell growth incubated for 48 hrs by serial dilution method; format: functional
Candida = assay: Antifungal activity against […] assessed as reduction in fungal cell growth incubated for 48 hrs by serial dilution method; format: functional
Staphylococcus aureus = assay: Antibacterial activity against Staphylococcus aureus assessed as reduction in bacterial cell growth incubated for 24 hrs by filter paper assay; format: functional
Aspergillus niger = assay: Antifungal activity against Aspergillus niger assessed as reduction in fungal cell growth incubated for 48 hrs by serial dilution method; format: functional

Cc1ccccc1CN1c2ccccc2C2(Cc3ccccc3C)CCN(C(=O)COc3ccccc3)C12 (stereo unspecified)
MIC [1]: 250 µg/mL (≈ 497 µM) | MIC (Fusarium oxysporum): 250 µg/mL (≈ 497 µM) | MIC (Penicillium citrinum): 125 µg/mL (≈ 249 µM) | MIC [2]: inactive | MIC (Ralstonia solanacearum): inactive | MIC (Pseudomonas aeruginosa): inactive | MIC (Curvularia lunata): inactive | MIC (Escherichia coli): inactive | MIC (Candida tropicalis): 250 µg/mL (≈ 497 µM) | pIC50 (Acetylcholinesterase): 3.10 | MIC (Bacillus cereus): 250 µg/mL (≈ 497 µM) | MIC (Cryptococcus neoformans): inactive | MIC (Verticillium dahliae): 250 µg/mL (≈ 497 µM) | MIC (Cytospora): 250 µg/mL (≈ 497 µM) | MIC (Aspergillus flavus): 250 µg/mL (≈ 497 µM) | MIC (Candida): 250 µg/mL (≈ 497 µM) | MIC (Staphylococcus aureus): inactive | MIC (Aspergillus niger): 250 µg/mL (≈ 497 µM)

Cc1cccc(CN2c3ccccc3C3(Cc4cccc(C)c4)CCN(C(=O)COc4ccccc4)C23)c1 (stereo unspecified)
MIC [1]: 250 µg/mL (≈ 497 µM) | MIC (Fusarium oxysporum): 250 µg/mL (≈ 497 µM) | MIC (Penicillium citrinum): 250 µg/mL (≈ 497 µM) | MIC [2]: 250 µg/mL (≈ 497 µM) | MIC (Ralstonia solanacearum): inactive | MIC (Pseudomonas aeruginosa): inactive | MIC (Curvularia lunata): inactive | MIC (Escherichia coli): inactive | MIC (Candida tropicalis): 125 µg/mL (≈ 249 µM) | pIC50 (Acetylcholinesterase): 5.20 | MIC (Bacillus cereus): 250 µg/mL (≈ 497 µM) | MIC (Cryptococcus neoformans): inactive | MIC (Verticillium dahliae): 250 µg/mL (≈ 497 µM) | MIC (Cytospora): 125 µg/mL (≈ 249 µM) | MIC (Aspergillus flavus): 250 µg/mL (≈ 497 µM) | MIC (Candida): 250 µg/mL (≈ 497 µM) | MIC (Staphylococcus aureus): inactive | MIC (Aspergillus niger): 250 µg/mL (≈ 497 µM)

CN1c2ccccc2C2(O)CCCN(C(=O)c3ccccc3F)C12 (stereo unspecified)
MIC [1]: inactive | MIC (Fusarium oxysporum): inactive | MIC (Penicillium citrinum): inactive | MIC [2]: inactive | MIC (Ralstonia solanacearum): 125 µg/mL (≈ 383 µM) | MIC (Pseudomonas aeruginosa): 250 µg/mL (≈ 766 µM) | MIC (Curvularia lunata): inactive | MIC (Escherichia coli): 250 µg/mL (≈ 766 µM) | MIC (Candida tropicalis): inactive | pIC50 (Acetylcholinesterase): 6.01 | MIC (Bacillus cereus): inactive | MIC (Cryptococcus neoformans): inactive | MIC (Verticillium dahliae): 125 µg/mL (≈ 383 µM) | MIC (Cytospora): inactive | MIC (Aspergillus flavus): inactive | MIC (Candida): inactive | MIC (Staphylococcus aureus): inactive | MIC (Aspergillus niger): inactive

Cc1cccc(CN2c3ccccc3C3(Cc4cccc(C)c4)CCN(C(=O)c4ccccc4C)C23)c1 (stereo unspecified)
MIC [1]: 250 µg/mL (≈ 514 µM) | MIC (Fusarium oxysporum): 125 µg/mL (≈ 257 µM) | MIC (Penicillium citrinum): inactive | MIC [2]: 125 µg/mL (≈ 257 µM) | MIC (Ralstonia solanacearum): 125 µg/mL (≈ 257 µM) | MIC (Pseudomonas aeruginosa): inactive | MIC (Curvularia lunata): 62.5 µg/mL (≈ 128 µM) | MIC (Escherichia coli): inactive | MIC (Candida tropicalis): 250 µg/mL (≈ 514 µM) | pIC50 (Acetylcholinesterase): 3.95 | MIC (Bacillus cereus): 125 µg/mL (≈ 257 µM) | MIC (Cryptococcus neoformans): inactive | MIC (Verticillium dahliae): 7.81 µg/mL (≈ 16 µM) | MIC (Cytospora): 125 µg/mL (≈ 257 µM) | MIC (Aspergillus flavus): 250 µg/mL (≈ 514 µM) | MIC (Candida): 250 µg/mL (≈ 514 µM) | MIC (Staphylococcus aureus): inactive | MIC (Aspergillus niger): 250 µg/mL (≈ 514 µM)

Cc1cccc(CN2c3ccccc3C3(Cc4cccc(C)c4)CCN(C(=O)C(C)C)C23)c1 (stereo unspecified)
MIC [1]: 250 µg/mL (≈ 570 µM) | MIC (Fusarium oxysporum): 125 µg/mL (≈ 285 µM) | MIC (Penicillium citrinum): inactive | MIC [2]: inactive | MIC (Ralstonia solanacearum): inactive | MIC (Pseudomonas aeruginosa): inactive | MIC (Curvularia lunata): inactive | MIC (Escherichia coli): 250 µg/mL (≈ 570 µM) | MIC (Candida tropicalis): 250 µg/mL (≈ 570 µM) | pIC50 (Acetylcholinesterase): 4.87 | MIC (Bacillus cereus): 15.6 µg/mL (≈ 35.6 µM) | MIC (Cryptococcus neoformans): inactive | MIC (Verticillium dahliae): 250 µg/mL (≈ 570 µM) | MIC (Cytospora): 250 µg/mL (≈ 570 µM) | MIC (Aspergillus flavus): 250 µg/mL (≈ 570 µM) | MIC (Candida): 250 µg/mL (≈ 570 µM) | MIC (Staphylococcus aureus): inactive | MIC (Aspergillus niger): 250 µg/mL (≈ 570 µM)

CCCC(=O)N1CCCC2(O)c3ccccc3N(C)C12 (stereo unspecified)
MIC [1]: inactive | MIC (Fusarium oxysporum): inactive | MIC (Penicillium citrinum): inactive | MIC [2]: inactive | MIC (Ralstonia solanacearum): 31.2 µg/mL (≈ 114 µM) | MIC (Pseudomonas aeruginosa): 250 µg/mL (≈ 911 µM) | MIC (Curvularia lunata): inactive | MIC (Escherichia coli): inactive | MIC (Candida tropicalis): inactive | pIC50 (Acetylcholinesterase): 3.92 | MIC (Bacillus cereus): inactive | MIC (Cryptococcus neoformans): inactive | MIC (Verticillium dahliae): 250 µg/mL (≈ 911 µM) | MIC (Cytospora): inactive | MIC (Aspergillus flavus): inactive | MIC (Candida): inactive | MIC (Staphylococcus aureus): inactive | MIC (Aspergillus niger): inactive

Cc1cccc(CN2c3ccccc3C3(Cc4cccc(C)c4)CCN(C(=O)CCc4ccccc4)C23)c1 (stereo unspecified)
MIC [1]: inactive | MIC (Fusarium oxysporum): 250 µg/mL (≈ 499 µM) | MIC (Penicillium citrinum): inactive | MIC [2]: 62.5 µg/mL (≈ 125 µM) | MIC (Ralstonia solanacearum): inactive | MIC (Pseudomonas aeruginosa): inactive | MIC (Curvularia lunata): inactive | MIC (Escherichia coli): inactive | MIC (Candida tropicalis): inactive | pIC50 (Acetylcholinesterase): 8.40 | MIC (Bacillus cereus): inactive | MIC (Cryptococcus neoformans): inactive | MIC (Verticillium dahliae): inactive | MIC (Cytospora): 250 µg/mL (≈ 499 µM) | MIC (Aspergillus flavus): 250 µg/mL (≈ 499 µM) | MIC (Candida): inactive | MIC (Staphylococcus aureus): inactive | MIC (Aspergillus niger): inactive

Source: ChEMBL document CHEMBL4304804, “Synthesis and biological evaluation of calycanthaceous alkaloid analogs” (Bioorg Med Chem, 2019)
